Test results: PMC7363588, “Mapping of the FGF14:Nav1.6 complex interface reveals FLPK as a functionally active peptide modulating excitability” (Physiological Reports, 2020)
Entries after “also recorded” stand apart in the source; their conditions may differ. Marks after values point to notes of the source that are not given here. Peptide text beside a SMILES is read from it.

Tested on: Nav1.6 in the presence of FGF14-ΔNT-GFP
Assay: Whole-cell patch-clamp, HEK-Nav1.6 cells expressing FGF14-ΔNT-GFP
Assay type: cell-based, human
Details: 50 μM FLPK
Text: Plasmids used in this study derived from the following clones: human FGF14‐1b isoform (accession number: NM_175929.2) and human Nav1.6 (accession number: NM_014191.3). The CLuc‐FGF14, CD4‐Nav1.6‐NLuc, constructs and the pcDNA3.1 vector (Invitrogen, Carlsbad, CA) were engineered and characterized as previously described (Goetz et al., 2009; Shavkunov et al., 2012,2013,2015; Ali et al., 2016, 2018; Wadsworth et al., 2019). The plasmid pGL3 expressing full length Firefly (Photinus pyralis) luciferase was a gift from Dr. P. Sarkar (Department of Neurology, UTMB). For protein purification studies, cDNAs encoding FGF14‐1b (accession number NP_787125; aa 64–252) or the C‐terminal tail of Nav1.6 (accession number #NP_001171455; aa 1756–1939) were subcloned into suitable pET bacterial expression vectors (pET28a‐FGF14; pET30a‐Nav1.6) with a 6X His‐tag at the N‐terminal site; these plasmids were a gift of Dr. Moosa Mohammadi (NYU, Langone Medical Center). The mutation coding for FGF14^V160A was generated by site‐directed mutagenesis and PCR using FGF14‐1b as a template described previously (Ali et al., 2016). For electrophysiological studies FGF14‐GFP (human) and FGF14‐ΔNT‐GFP (human) were cloned into the GFP plasmid (pQBI‐fC2; Quantum Biotechnology Inc., Montreal, Canada) as previously described.
HEK293 cells were maintained in DMEM and F‐12 (Invitrogen, Carlsbad, CA), supplemented with 0.05% glucose, 0.5 mM pyruvate, 10% fetal bovine serum, 100 units/ml penicillin, and 100 µg/ml streptomycin (Invitrogen), and incubated at 37 °C with 5% CO2. HEK293 cells stably expressing the human Nav1.6 channel (hereafter referred to as HEK‐Nav1.6 cells) were maintained similarly except for the addition of 500 μg/ml G418 (Invitrogen) to maintain stable Nav1.6 expression. Cells were transfected at 80%–90% confluence with equal amount (1 μg each) of plasmid pairs using Lipofectamine 2000 (Invitrogen) according to manufacturer's instructions. HEK‐Nav1.6 cells were washed and replated at very low density prior to electrophysiological recordings (Ali et al., 2016, 2018; Scala et al., 2018; Wadsworth et al., 2019).
HEK‐Nav1.6 cells transfected with GFP or FGF14‐GFP were plated at low density on glass cover slips for 3–4 hr and subsequently transferred to the recording chamber. Recordings were performed at room temperature (20–22°C) 24 hr posttransfection using a MultiClamp 700B amplifier (Molecular Devices, Sunnyvale, CA). The composition of recording solutions consisted of the following salts; extracellular (mM): 140 NaCl, 3 KCl, 1 MgCl2, 1 CaCl2, 10 HEPES, 10 glucose, pH 7.3; intracellular (mM): 130 CH3O3SCs, 1 EGTA, 10 NaCl, 10 HEPES, pH 7.3. Membrane capacitance and series resistance were estimated by the dial settings on the amplifier and compensated for electronically by 70%–75%. Data were acquired at 20 kHz and filtered at 5 kHz prior to digitization and storage. All experimental parameters were controlled by Clampex 9.2 software (Molecular Devices) and interfaced to the electrophysiological equipment using a Digidata 1,200 analog‐digital interface (Molecular Devices). Voltage‐dependent inward currents for HEK‐Nav1.6 cells were evoked by depolarization to test potentials between −100 mV and +60 mV from a holding potential of −70 mV followed by a voltage prestep pulse of −120 mV (Nav1.6). Steady‐state (fast) inactivation of Nav channels was measured with a paired‐pulse protocol. From the holding potential, cells were stepped to varying test potentials between −120 mV (Nav1.6) and +20 mV (prepulse) prior to a test pulse to −20 mV.
Current densities were obtained by dividing Na^+ current (INa) amplitude by membrane capacitance. Current–voltage relationships were generated by plotting current density as a function of the […]. Conductance (GNa) was calculated by the following equation: GNa=INa/Vm‐Erev where INa ^+ is the current amplitude at voltage Vm, and Erev is the Na^+ reversal potential. […]

`CC(=O)N[C@@H](Cc1ccccc1)C(=O)N[C@@H](CC(C)C)C(=O)N1CCC[C@H]1C(=O)N[C@@H](CCCCN)C(N)=O` [FLPK] (Ac-FLPK-NH2) was tested, and the “effect on Nav1.6 currents in absence of FGF14 N-terminal domain” value (FGF14-ΔNT-GFP) was “insensitive to FLPK; also recorded: no effects on any other parameters associated with FGF14‐GFP regulation; also recorded: unaffected by FLPK”, the “Tau (τ), decay time constant of I Na” value (ΔNT-FGF14-GFP, at −10 mV, mean ± SEM (n = 11), DMSO 1.091 ± 0.07) was 1.137 ± 0.08 (11) ms and the Kact (ΔNT-FGF14-GFP, mean ± SEM (n = 11), DMSO 4.61 ± 0.3) was 1.63 ± 0.23 (11) mV. For the same compound, the Kinact (ΔNT-FGF14-GFP, mean ± SEM (n = 11), DMSO 6.4 ± 0.44) was 6.75 ± 0.32 (11) mV, the “Activation (V1/2)” value (ΔNT-FGF14-GFP, mean ± SEM (n = 11), DMSO –21.2 ± 0.36, p < .001) was “–37.43 ± 0.3 (11) ^ l , ^ o,p,q mV” and the “Steady-state Inactivation (V1/2)” value (ΔNT-FGF14-GFP, mean ± SEM (n = 11), DMSO –70.2 ± 0.53) was “–68.3 ± 0.34 (11) ^o,p,q mV”.
